According to ChEMBL document CHEMBL3877269, “Structure-activity relationships and optimization of acyclic acylphloroglucinol analogues as novel antimicrobial agents” (Eur J Med Chem, 2017):
In brackets after ≈: the same amount, converted by molar mass. Activity calls are given as the source filed them. No cut-off for these calls is given here.

Columns and labels:
Staphylococcus aureus [1] = test: Antibacterial activity against methicillin-resistant Staphylococcus aureus JCSC 2172 after 8 to 12 hrs by resazurin dye based microdilution method; assay type: functional
Staphylococcus aureus [2] = test: Antibacterial activity against drug-susceptible Staphylococcus aureus ATCC 6538 after 8 to 12 hrs by resazurin dye based microdilution method; assay type: functional
[3] = Solubility of the compound in DMSO; assay type: physicochemical
Bacillus thuringiensis = test: Antibacterial activity against Bacillus thuringiensis ATCC 10792 after 8 to 12 hrs by resazurin dye based microdilution method; assay type: functional
Bacillus cereus = test: Antibacterial activity against Bacillus cereus ATCC 10876 after 8 to 12 hrs by resazurin dye based microdilution method; assay type: functional
Bacillus subtilis = test: Antibacterial activity against Bacillus subtilis ATCC 11774 after 8 to 12 hrs by resazurin dye based microdilution method; assay type: functional
Escherichia coli = test: Antibacterial activity against Escherichia coli ATCC 8739 after 8 to 12 hrs by resazurin dye based microdilution method; assay type: functional
[4] = Cytotoxicity against mouse RAW264.7 cells assessed as reduction in cell viability after 24 hrs by MTT assay; assay type: toxicity
[5] = Selectivity ratio of IC50 for mouse RAW264.7 cells to MIC for methicillin-resistant Staphylococcus aureus JCSC 2172; assay type: ADME
Staphylococcus aureus [6] = test: Potency index, ratio of vancomycin MIC to compound MIC for methicillin-resistant Staphylococcus aureus JCSC 2172; assay type: functional
Staphylococcus aureus [7] = test: Bacteriostatic activity against methicillin-resistant Staphylococcus aureus JCSC 2172 at 0.5 to 2 times MIC up to 10 hrs by time-kill assay; assay type: functional
Staphylococcus aureus [8] = test: Bactericidal activity against methicillin-resistant Staphylococcus aureus JCSC 2172 assessed as reduction in CFU count at 4 times MIC after 24 hrs by time-kill assay; assay type: functional; set-up: scale not given: the % may be the effect or the level left
Staphylococcus aureus [9] = test: Bactericidal activity against methicillin-resistant Staphylococcus aureus JCSC 2172 assessed as 3-log reduction in bacterial colony at 4 times MIC up to 4 hrs by time-kill assay; assay type: functional
Staphylococcus aureus [10] = test: Bactericidal activity against methicillin-resistant Staphylococcus aureus JCSC 2172 assessed induction of membrane potential dissipation at 0.5 to 8 times MIC by DiSC3-5 probe based fluorescence assay; assay type: functional
Staphylococcus aureus [11] = test: Disruption of cytoplasmic membrane potential in methicillin-resistant Staphylococcus aureus JCSC 2172 at 8 times MIC after 4 hrs by SYTOX green dye based fluorescence assay; assay type: functional
Staphylococcus aureus [12] = test: Induction of cell lysis in methicillin-resistant Staphylococcus aureus JCSC 2172 at 8 times MIC after 4 hrs by osmium tetroxide staining based scanning electron microscopic method; assay type: functional
Staphylococcus aureus [13] = test: Bactericidal activity against methicillin-resistant Staphylococcus aureus JCSC 2172 assessed as 3-log reduction in bacterial colony at 4 times MIC after 10 hrs by time-kill assay; assay type: functional
Staphylococcus aureus [14] = test: Disruption of cytoplasmic membrane potential in methicillin-resistant Staphylococcus aureus JCSC 2172 at 10 ug/ml after 4 hrs by SYTOX green dye based fluorescence assay; assay type: functional

Row | Structure (SMILES) | MIC (Staphylococcus aureus [1]) [µg/mL] | MIC (Staphylococcus aureus [2]) [µg/mL] | MIC (Bacillus thuringiensis) [µg/mL] | MIC (Bacillus cereus) [µg/mL] | MIC (Bacillus subtilis) [µg/mL] | MIC (Escherichia coli) [µg/mL] | IC50 at 24 h [4] [µg/mL] | selectivity ratio [5] | also measured
1 | CCC(=O)c1c(O)cc(O)c([C@@H](CC(C)C)C2=C(O)C(C)(C)C(=O)C(C)(C)C2=O)c1O | 8 (≈ 18.5 µM) | 8 (≈ 18.5 µM) |  |  |  |  |  |  | 
2 | CC(C)C[C@@H](C1=C(O)C(C)(C)C(=O)C(C)(C)C1=O)c1c(O)cc(O)c(C(=O)Cc2ccccc2)c1O | 16 (≈ 32.4 µM) | 16 (≈ 32.4 µM) |  |  |  |  |  |  | 
3 | CC(C)C[C@@H](C1=C(O)C(C)(C)C(=O)C(C)(C)C1=O)c1c(O)cc(O)c(C(=O)CCc2ccccc2)c1O | 8 (≈ 15.7 µM) | 4 (≈ 7.86 µM) |  |  |  |  |  |  | 
4 | CCCCCC(=O)c1c(O)cc(O)c([C@@H](CC(C)C)C2=C(O)C(C)(C)C(=O)C(C)(C)C2=O)c1O | 2 (≈ 4.21 µM) | 2 (≈ 4.21 µM) |  |  |  |  |  |  | 
5 | CCCC(=O)c1c(O)cc(O)c([C@@H](CC(C)C)C2=C(O)C(C)(C)C(=O)C(C)(C)C2=O)c1O | 32 (≈ 71.7 µM) | 32 (≈ 71.7 µM) |  |  |  |  |  |  | 
6 | CCCCCCCCCCCCCC(=O)c1c(O)cc(O)c([C@@H](CC(C)C)C2=C(O)C(C)(C)C(=O)C(C)(C)C2=O)c1O | 1 (≈ 1.7 µM) | 0.5 (≈ 0.852 µM) | 2 (≈ 3.41 µM) | 4 (≈ 6.82 µM) | 8 (≈ 13.6 µM) | > 32 | 13.1 (≈ 22.3 µM) | 13.1 | solubility [3]: Insoluble
7 | CC(=O)c1c(O)cc(O)c([C@@H](CC(C)C)C2=C(O)C(C)(C)C(=O)C(C)(C)C2=O)c1O | 4 (≈ 9.56 µM) | 4 (≈ 9.56 µM) |  |  |  |  |  |  | 
8 | CCCCCCC(=O)c1c(O)cc(O)c([C@@H](CC(C)C)C2=C(O)C(C)(C)C(=O)C(C)(C)C2=O)c1O | 0.5 (≈ 1.02 µM) | 0.5 (≈ 1.02 µM) | 0.5 (≈ 1.02 µM) | 0.5 (≈ 1.02 µM) | 0.25 (≈ 0.512 µM) | > 32 | 8.8 (≈ 18 µM) | 16.7 | 
9 | CCCCCCCC(=O)c1c(O)cc(O)c([C@@H](CC(C)C)C2=C(O)C(C)(C)C(=O)C(C)(C)C2=O)c1O | 0.25 (≈ 0.497 µM) | 0.25 (≈ 0.497 µM) | 0.25 (≈ 0.497 µM) | 0.25 (≈ 0.497 µM) | 0.13 (≈ 0.259 µM) | > 32 | 5.1 (≈ 10.1 µM) | 20.4 | Ratio (Staphylococcus aureus [6]): 4; Activity (Staphylococcus aureus [7]): >90%; Activity (Staphylococcus aureus [8]): 99.99%; Activity (Staphylococcus aureus [9]): Active; Activity (Staphylococcus aureus [10]): Active; Activity (Staphylococcus aureus [11]): Active; Activity (Staphylococcus aureus [12]): Active
10 | CCCCCCCCCC(=O)c1c(O)cc(O)c([C@@H](CC(C)C)C2=C(O)C(C)(C)C(=O)C(C)(C)C2=O)c1O | 0.25 (≈ 0.471 µM) | 0.25 (≈ 0.471 µM) | 0.5 (≈ 0.942 µM) | 1 (≈ 1.88 µM) | 0.25 (≈ 0.471 µM) | > 32 | 5.1 (≈ 9.61 µM) | 20.4 | 
11 | CC(C)C[C@@H](C1=C(O)C(C)(C)C(=O)C(C)(C)C1=O)c1c(O)cc(O)c(C=O)c1O | > 32 | > 32 |  |  |  |  |  |  | 
12 | CC(C)C[C@@H](C1=C(O)C(C)(C)C(=O)C(C)(C)C1=O)c1c(O)cc(O)c(C(=O)C2CCC2)c1O | 16 (≈ 34.9 µM) | 16 (≈ 34.9 µM) |  |  |  |  |  |  | 
13 | CN[C@H](CC(C)C)C(=O)N[C@H]1C(=O)N[C@@H](CC(N)=O)C(=O)N[C@H]2C(=O)N[C@H]3C(=O)N[C@H](C(=O)N[C@H](C(=O)O)c4cc(O)cc(O)c4-c4cc3ccc4O)[C@H](O)c3ccc(c(Cl)c3)Oc3cc2cc(c3O[C@@H]2O[C@H](CO)[C@@H](O)[C@H](O)[C@H]2O[C@H]2C[C@](C)(N)[C@H](O)[C@H](C)O2)Oc2ccc(cc2Cl)[C@H]1O [VANCOMYCIN] |  |  | 1 (≈ 0.69 µM) | 0.25 (≈ 0.173 µM) | 0.13 (≈ 0.0897 µM) | > 32 |  |  | Activity (Staphylococcus aureus [13]): Active
14 | CC(C)C[C@@H](C1=C(O)C(C)(C)C(=O)C(C)(C)C1=O)c1c(O)cc(O)c(C(=O)C(C)C)c1O | 16 (≈ 35.8 µM) | 16 (≈ 35.8 µM) |  |  |  |  |  |  | 
15 | CCCCCCCCCCC(=O)c1c(O)cc(O)c([C@@H](CC(C)C)C2=C(O)C(C)(C)C(=O)C(C)(C)C2=O)c1O | 0.5 (≈ 0.918 µM) | 0.25 (≈ 0.459 µM) | 0.25 (≈ 0.459 µM) | 0.5 (≈ 0.918 µM) | 0.25 (≈ 0.459 µM) | > 32 | 11.1 (≈ 20.4 µM) | 22.2 | 
16 | CC(C)C[C@@H](C1=C(O)C(C)(C)C(=O)C(C)(C)C1=O)c1c(O)cc(O)c(C(=O)C2CCCC2)c1O | > 32 | 32 (≈ 67.7 µM) |  |  |  |  |  |  | 
17 | CC(C)CC(=O)c1c(O)cc(O)c([C@@H](CC(C)C)C2=C(O)C(C)(C)C(=O)C(C)(C)C2=O)c1O | 8 (≈ 17.4 µM) | 8 (≈ 17.4 µM) |  |  |  |  |  |  | 
18 | CC[C@H](C)[C@H](NC(=O)CN)C(=O)NCC(=O)N[C@@H](C)C(=O)N[C@H](C(=O)N[C@@H](CC(C)C)C(=O)N[C@@H](CCCCN)C(=O)N[C@H](C(=O)N[C@@H](CC(C)C)C(=O)N[C@H](C(=O)N[C@H](C(=O)NCC(=O)N[C@@H](CC(C)C)C(=O)N1CCC[C@H]1C(=O)N[C@@H](C)C(=O)N[C@@H](CC(C)C)C(=O)N[C@H](C(=O)N[C@@H](CO)C(=O)N[C@@H](Cc1c[nH]c2ccccc12)C(=O)N[C@H](C(=O)N[C@@H](CCCCN)C(=O)N[C@@H](CCCNC(=N)N)C(=O)N[C@@H](CCCCN)C(=O)N[C@@H](CCCNC(=N)N)C(=O)N[C@@H](CCC(N)=O)C(=O)N[C@@H](CCC(N)=O)C(N)=O)[C@@H](C)CC)[C@@H](C)CC)[C@@H](C)O)[C@@H](C)O)C(C)C)C(C)C |  |  |  |  |  |  |  |  | Activity (Staphylococcus aureus [14]): Active
19 | CC(C)C[C@@H](C1=C(O)C(C)(C)C(=O)C(C)(C)C1=O)c1c(O)cc(O)c(C(=O)C2CCCCC2)c1O | 4 (≈ 8.22 µM) | 4 (≈ 8.22 µM) |  |  |  |  |  |  | 
20 | CCCCC(=O)c1c(O)cc(O)c([C@@H](CC(C)C)C2=C(O)C(C)(C)C(=O)C(C)(C)C2=O)c1O | 8 (≈ 17.4 µM) | 4 (≈ 8.68 µM) |  |  |  |  |  |  | 
21 | CCCCCCCCC(=O)c1c(O)cc(O)c([C@@H](CC(C)C)C2=C(O)C(C)(C)C(=O)C(C)(C)C2=O)c1O | 0.5 (≈ 0.968 µM) | 0.25 (≈ 0.484 µM) | 0.5 (≈ 0.968 µM) | 0.5 (≈ 0.968 µM) | 0.25 (≈ 0.484 µM) | > 32 | 8.2 (≈ 15.9 µM) | 16.4 | 
22 | CCCCCCCCCCCC(=O)c1c(O)cc(O)c([C@@H](CC(C)C)C2=C(O)C(C)(C)C(=O)C(C)(C)C2=O)c1O | 0.5 (≈ 0.895 µM) | 0.5 (≈ 0.895 µM) | 0.5 (≈ 0.895 µM) | 1 (≈ 1.79 µM) | 0.25 (≈ 0.447 µM) | > 32 | 7.9 (≈ 14.1 µM) | 15.8 | 
23 | CCCCCCCCCCCCCCCC(=O)c1c(O)cc(O)c([C@@H](CC(C)C)C2=C(O)C(C)(C)C(=O)C(C)(C)C2=O)c1O | 1 to 2 (≈ 1.63 to 3.25 µM) | 1 (≈ 1.63 µM) | 2 (≈ 3.25 µM) | 8 (≈ 13 µM) | 16 (≈ 26 µM) | > 32 | 17.5 (≈ 28.5 µM) | 17.5 | solubility [3]: Insoluble
